“Also recorded” adds a separate entry of the source. Square brackets hold non-standard residues; d marks the D form. Ends that are not written are not given here. Peptide text beside a SMILES is read from it. Phe(4-F) = N[C@@H](Cc1ccc(F)cc1)C(=O)O Where only a bound is given, the exact number is not on record here.

This test has as its system T cell lines against natural epitope SSX-241-49. In words: Cross-reactivity and functional avidity: IFN-gamma production by T cell lines raised against natural SSX-2 41-49.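 On all read-outs here: analogs presented ex vivo by competent APCs to T cells specific for the non-mutated epitope, scored by lowest activating concentration, peak cytokine effect and concentration at that peak.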 In kind it is cell-based, HHD transgenic mice. The conditions noted are these: for Cross-reactivity and fct avidity (native to analogs)*: T cells raised to native peptide tested on analogs, footnote * and unit not given.

For `CC[C@H](NC(=O)[C@@H](N)CCCCN)C(=O)N[C@@H](CO)C(=O)N[C@@H](CCC(=O)O)C(=O)N[C@@H](CCCCN)C(=O)N[C@H](C(=O)N[C@@H](Cc1ccccc1)C(=O)N[C@@H](Cc1ccc(O)cc1)C(=O)N[C@H](C(=O)O)C(C)C)[C@@H](C)CC` [SSX2 41-49 (A42(Abu)), KAbuSEKIFYV], the “Cross-reactivity and fct avidity (native to analogs)*” value is listed as 0.3.

Turning to `CC[C@H](C)[C@H](NC(=O)[C@H](CCCCN)NC(=O)[C@H](CCC(=O)O)NC(=O)[C@H](CO)NC(=O)C(C)(C)NC(=O)[C@@H](N)CCCCN)C(=O)N[C@@H](Cc1ccccc1)C(=O)N[C@@H](Cc1ccc(O)cc1)C(=O)N[C@H](C(=O)O)C(C)C` [SSX2 41-49 (A42(Aib)), KAibSEKIFYV], the “Cross-reactivity and fct avidity (native to analogs)*” value stood at 3. Still for that read-out and setting: for `CC[C@H](C)[C@H](NC(=O)[C@H](CCCCN)NC(=O)[C@H](CCC(=O)O)NC(=O)[C@H](CO)NC(=O)[C@H](Cc1ccc2ccccc2c1)NC(=O)[C@@H](N)CCCCN)C(=O)N[C@@H](Cc1ccccc1)C(=O)N[C@@H](Cc1ccc(O)cc1)C(=O)N[C@H](C(=O)O)C(C)C` [SSX2 41-49 (A42(Nal-2)), KNal-2SEKIFYV] the value was 3. As to `CCCC[C@H](NC(=O)[C@@H](N)CCCCN)C(=O)N[C@@H](CO)C(=O)N[C@@H](CCC(=O)O)C(=O)N[C@@H](CCCCN)C(=O)N[C@H](C(=O)N[C@@H](Cc1ccccc1)C(=O)N[C@@H](Cc1ccc(O)cc1)C(=O)N[C@H](C(=O)O)C(C)C)[C@@H](C)CC` [SSX2 41-49 (A42(Nle)), KNleSEKIFYV], the “Cross-reactivity and fct avidity (native to analogs)*” value is 0.1. Take `CCC[C@H](NC(=O)[C@@H](N)CCCCN)C(=O)N[C@@H](CO)C(=O)N[C@@H](CCC(=O)O)C(=O)N[C@@H](CCCCN)C(=O)N[C@H](C(=O)N[C@@H](Cc1ccccc1)C(=O)N[C@@H](Cc1ccc(O)cc1)C(=O)N[C@H](C(=O)O)C(C)C)[C@@H](C)CC` [SSX2 41-49 (A42(Nva)), KNvaSEKIFYV]: the “Cross-reactivity and fct avidity (native to analogs)*” value was determined as 0.1. With `CC[C@H](C)[C@H](NC(=O)[C@H](CCCCN)NC(=O)[C@H](CCC(=O)O)NC(=O)[C@H](CO)NC(=O)[C@H](CC(C)C)NC(=O)[C@@H](N)CCCCN)C(=O)N[C@@H](Cc1ccccc1)C(=O)N[C@@H](Cc1ccc(O)cc1)C(=O)N[C@H](C(=O)O)C(C)C` [SSX2 41-49 (A42L)], the “Cross-reactivity and fct avidity (native to analogs)*” value worked out at 0.03. The same measure, in the same setting: for `CC[C@H](C)[C@H](NC(=O)[C@H](CCCCN)NC(=O)[C@H](CCC(=O)O)NC(=O)[C@H](CO)NC(=O)[C@H](CC(C)C)NC(=O)[C@H](N)CCCCN)C(=O)N[C@@H](Cc1ccccc1)C(=O)N[C@@H](Cc1ccc(O)cc1)C(=O)N[C@H](C(=O)O)C(C)C` [SSX2 41-49 (K41(D-Lys), A42L)] the value was 10; for `CC[C@H](C)[C@H](NC(=O)[C@H](CCCCN)NC(=O)[C@H](CCC(=O)O)NC(=O)[C@H](CO)NC(=O)[C@@H](NC(=O)[C@H](N)CCCCN)C(C)C)C(=O)N[C@@H](Cc1ccccc1)C(=O)N[C@@H](Cc1ccc(O)cc1)C(=O)N[C@H](C(=O)O)C(C)C` [SSX2 41-49 (K41(D-Lys), A42V)], 10; for `CC[C@H](C)[C@H](NC(=O)[C@H](CCCCN)NC(=O)[C@H](CCC(=O)O)NC(=O)[C@H](CO)NC(=O)[C@H](C)NC(=O)[C@@H](N)Cc1ccc(F)cc1)C(=O)N[C@@H](Cc1ccccc1)C(=O)N[C@@H](Cc1ccc(O)cc1)C(=O)N[C@H](C(=O)O)C(C)C` [SSX2 41-49 (K41(Phe-4F))] (H-[Phe(4-F)]ASEKIFYV-OH), 3. Still for that read-out and setting: for `CC[C@H](C)[C@H](NC(=O)[C@H](CCCCN)NC(=O)[C@H](CCC(=O)O)NC(=O)[C@H](CO)NC(=O)[C@H](CC(C)C)NC(=O)[C@@H](N)Cc1ccccc1)C(=O)N[C@@H](Cc1ccccc1)C(=O)N[C@@H](Cc1ccc(O)cc1)C(=O)N[C@H](C(=O)O)C(C)C` [SSX2 41-49 (K41F, A42L)] the value was 0.3; for `CC[C@H](C)[C@H](NC(=O)[C@H](CCCCN)NC(=O)[C@H](CCC(=O)O)NC(=O)[C@H](CO)NC(=O)[C@H](CCSC)NC(=O)[C@@H](N)Cc1ccccc1)C(=O)N[C@@H](Cc1ccccc1)C(=O)N[C@@H](Cc1ccc(O)cc1)C(=O)N[C@H](C(=O)O)C(C)C` [SSX2 41-49 (K41F, A42M)], 3; for `CC[C@H](C)[C@H](NC(=O)[C@H](CCCCN)NC(=O)[C@H](CO)NC(=O)[C@H](CO)NC(=O)[C@@H](NC(=O)[C@@H](N)Cc1ccccc1)C(C)C)C(=O)N[C@@H](Cc1ccccc1)C(=O)N[C@@H](Cc1ccc(O)cc1)C(=O)N[C@H](C(=O)O)C(C)C` [SSX2 41-49 (K41F, A42V, E44S)], over 10. In the case of `CC[C@H](C)[C@H](NC(=O)[C@H](CCCCN)NC(=O)[C@@H](NC(=O)[C@H](CO)NC(=O)[C@@H](NC(=O)[C@@H](N)Cc1ccccc1)C(C)C)[C@@H](C)O)C(=O)N[C@@H](Cc1ccccc1)C(=O)N[C@@H](Cc1ccc(O)cc1)C(=O)N[C@H](C(=O)O)C(C)C` [SSX2 41-49 (K41F, A42V, E44T)], the “Cross-reactivity and fct avidity (native to analogs)*” value is over 10. Same read-out and setting: to `CC[C@H](C)[C@H](NC(=O)[C@H](CCCCN)NC(=O)[C@H](CCC(=O)O)NC(=O)[C@H](CO)NC(=O)[C@@H](NC(=O)[C@@H](N)Cc1ccccc1)C(C)C)C(=O)N[C@@H](Cc1ccccc1)C(=O)N[C@@H](Cc1ccc(O)cc1)C(=O)N[C@@H](C)C(=O)O` [SSX2 41-49 (K41F, A42V, V49A)] belongs 1; to `CC[C@H](NC(=O)[C@H](Cc1ccc(O)cc1)NC(=O)[C@H](Cc1ccccc1)NC(=O)[C@@H](NC(=O)[C@H](CCCCN)NC(=O)[C@H](CCC(=O)O)NC(=O)[C@H](CO)NC(=O)[C@@H](NC(=O)[C@@H](N)Cc1ccccc1)C(C)C)[C@@H](C)CC)C(=O)O` [SSX2 41-49 (K41F, A42V, V49Abu)], 1; to `CC[C@H](C)[C@H](NC(=O)[C@H](CCCCN)NC(=O)[C@H](CCC(=O)O)NC(=O)[C@H](CO)NC(=O)[C@@H](NC(=O)[C@@H](N)Cc1ccccc1)C(C)C)C(=O)N[C@@H](Cc1ccccc1)C(=O)N[C@@H](Cc1ccc(O)cc1)C(=O)N[C@@H](CC(C)C)C(=O)O` [SSX2 41-49 (K41F, A42V, V49L)], over 10. Consider `CC[C@H](C)[C@H](NC(=O)[C@H](CCCCN)NC(=O)[C@H](CCC(=O)O)NC(=O)[C@H](CO)NC(=O)[C@@H](NC(=O)[C@@H](N)Cc1ccccc1)C(C)C)C(=O)N[C@@H](Cc1ccccc1)C(=O)N[C@@H](Cc1ccc(O)cc1)C(=O)N(C)[C@H](C(=O)O)C(C)C` [SSX2 41-49 (K41F, A42V, V49MeVal)], for which the “Cross-reactivity and fct avidity (native to analogs)*” value is listed as 10. Still for that read-out and setting: to `CCCC[C@H](NC(=O)[C@H](Cc1ccc(O)cc1)NC(=O)[C@H](Cc1ccccc1)NC(=O)[C@@H](NC(=O)[C@H](CCCCN)NC(=O)[C@H](CCC(=O)O)NC(=O)[C@H](CO)NC(=O)[C@@H](NC(=O)[C@@H](N)Cc1ccccc1)C(C)C)[C@@H](C)CC)C(=O)O` [SSX2 41-49 (K41F, A42V, V49Nle)] belongs over 10.

Turning to `CCC[C@H](NC(=O)[C@H](Cc1ccc(O)cc1)NC(=O)[C@H](Cc1ccccc1)NC(=O)[C@@H](NC(=O)[C@H](CCCCN)NC(=O)[C@H](CCC(=O)O)NC(=O)[C@H](CO)NC(=O)[C@@H](NC(=O)[C@@H](N)Cc1ccccc1)C(C)C)[C@@H](C)CC)C(=O)O` [SSX2 41-49 (K41F, A42V, V49Nva)], the “Cross-reactivity and fct avidity (native to analogs)*” value stood at 0.1. `CC[C@H](C)[C@H](NC(=O)[C@H](CCCCN)NC(=O)[C@H](CCC(=O)O)NC(=O)[C@H](CO)NC(=O)[C@H](C)NC(=O)[C@@H](N)Cc1c[nH]c2ccccc12)C(=O)N[C@@H](Cc1ccccc1)C(=O)N[C@@H](Cc1ccc(O)cc1)C(=O)N[C@H](C(=O)O)C(C)C` [SSX2 41-49 (K41W)]: the “Cross-reactivity and fct avidity (native to analogs)*” value is given as over 10. With `CC[C@H](C)[C@H](NC(=O)[C@H](CCCCN)NC(=O)[C@H](CCC(=O)O)NC(=O)[C@H](CO)NC(=O)[C@@H](NC(=O)[C@@H](N)Cc1c[nH]c2ccccc12)[C@@H](C)CC)C(=O)N[C@@H](Cc1ccccc1)C(=O)N[C@@H](Cc1ccc(O)cc1)C(=O)N[C@H](C(=O)O)C(C)C` [SSX2 41-49 (K41W, A42I)], the “Cross-reactivity and fct avidity (native to analogs)*” value came to 0.1. For `CC[C@H](C)[C@H](NC(=O)[C@H](CCCCN)NC(=O)[C@H](CCC(=O)O)NC(=O)[C@H](CO)NC(=O)[C@@H](NC(=O)[C@@H](N)Cc1ccc(O)cc1)[C@@H](C)CC)C(=O)N[C@@H](Cc1ccccc1)C(=O)N[C@@H](Cc1ccc(O)cc1)C(=O)N[C@H](C(=O)O)C(C)C` [SSX2 41-49 (K41Y, A42I)], the “Cross-reactivity and fct avidity (native to analogs)*” value amounted to 1.

Turning to `CC[C@H](C)[C@H](NC(=O)[C@H](CCCCN)NC(=O)[C@H](CCC(=O)O)NC(=O)[C@H](CO)NC(=O)[C@H](C)NC(=O)[C@@H](N)CCCCN)C(=O)N[C@@H](Cc1ccccc1)C(=O)N[C@@H](Cc1ccc(O)cc1)C(=O)N[C@H](C(=O)O)C(C)C` [SSX2 41-49, reference compound], the “Cross-reactivity and fct avidity (native to analogs)*” value was found to be 1. Same read-out and setting: to “FVSEKIFY(Aib) [SSX2 41-49 (K41F, A42V, V49Aib)]” belongs over 10; to FVSEKLFTA, over 10; to “FVSEKMFYV [SSX2 41-49 (K41F, A42V, I46M)]”, over 10.

As for “FVSEKVFYV (T cell peptide epitope analog) [SSX2 41-49 (K41F, A42V, I46V)]”, the “Cross-reactivity and fct avidity (native to analogs)*” value was found to be 1. Consider “FVSNKIFYV [SSX2 41-49 (K41F, A42V, E44N)]”, for which the “Cross-reactivity and fct avidity (native to analogs)*” value was over 10. As to “K(D-Ala)SEKIFYV [SSX2 41-49 (A42(D-Ala))]”, the “Cross-reactivity and fct avidity (native to analogs)*” value turned out to be 10. The same measure, in the same setting: for “K(D-Val)SEKIFYV [SSX2 41-49 (A42(D-Val))]” the value was 3; for KASEKIFYV [SSX2 41-49-NH2], over 10. As to “KASEKIFYVY (T cell peptide epitope analog) [SSX-241-50, wild-type SSX-2 41-50 decamer, reference compound]”, the “activity in cross-reactivity assay (IFN-gamma production by wild-type SSX-2 41-49 specific T cells), in words” value (compared with wild-type peptide) is listed as “no immunological activity; also recorded: significantly less active”.
